Earlier results in patent US20160158245A1, “PHARMACEUTICAL FORMULATION CONTAINING THIENOTRIAZOLODIAZEPINE COMPOUNDS” (ONCOETHIX GmbH, priority 2013, published 2016).

Tested on: BRD4 and c-MYC
Conditions: cited from earlier work

Cc1sc2c(c1C)C(c1ccc(Cl)cc1)=N[C@@H](CC(=O)OC(C)(C)C)c1nnc(C)n1-2 [JQ1]
BRD4 and c-MYC down-regulation: induce BRD4 down-regulation and subsequently c-MYC down-regulation
